Measured values reported in US8648201B2, “Aminopyridine derivatives for treating tumors and inflammatory diseases” (MERCK PATENT GmbH, priority 2009, dated 2014).

Key:
IRAK-4 [1] = molecular target: T1, IRAK-4 (Homo sapiens, UniProt Q9NWZ3); assay: Test for the inhibition of IRAK4 (flashplate, 33P-ATP); type: biochemical; conditions: enzyme
T1 construct: His6 (N); Dr.Jaekel
T1 sequence (Q9NWZ3 1-460): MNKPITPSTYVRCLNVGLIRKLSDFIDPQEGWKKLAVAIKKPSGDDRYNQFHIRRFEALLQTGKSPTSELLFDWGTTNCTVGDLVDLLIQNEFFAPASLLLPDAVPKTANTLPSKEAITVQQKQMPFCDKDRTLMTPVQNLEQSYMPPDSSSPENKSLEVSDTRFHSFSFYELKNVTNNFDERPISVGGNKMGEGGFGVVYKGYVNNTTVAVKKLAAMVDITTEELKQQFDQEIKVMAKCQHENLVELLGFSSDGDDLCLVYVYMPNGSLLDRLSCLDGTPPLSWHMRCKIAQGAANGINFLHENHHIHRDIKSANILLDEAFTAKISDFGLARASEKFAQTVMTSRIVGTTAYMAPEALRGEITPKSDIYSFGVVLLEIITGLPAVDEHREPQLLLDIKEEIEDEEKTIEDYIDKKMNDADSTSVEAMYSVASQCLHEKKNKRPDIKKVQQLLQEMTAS
Procedure, shortened: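 His6-IRAK4 (7.3 nM) with biotinylated STK substrate 1 peptide (300 nM) and 10 μM ATP spiked with ^33P-ATP, incubated 180 min at 22° C. Incorporated radioactivity counted; blank from 1 μM staurosporine subtracted, activity expressed as % of no-compound control, IC50 by statistical fit.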

IRAK-4 [2] = molecular target: T1, IRAK-4; assay: IC50 IRAK-4 (cell); type: cell-based

SMILES	IC50 (IRAK-4 [1]) [nM]	IC50 (IRAK-4 [2]) [nM]
COc1ccc2nc(-c3cc(-c4cnn(C)c4)cnc3N)[nH]c2c1 [Compound A43]	100 to 10000	
Cn1cc(-c2cnc(N)c(-c3nc4ccc(C(=O)NCCc5ccc(F)c(F)c5)cc4[nH]3)c2)cn1 [Compound A128, N-[2-(3,4-difluorophenyl)ethyl]-2-[2-amino-5-(1-methyl-1H-pyrazol-4-yl)pyridin-3-yl]-3H-benzimidazole-5-carboxamide]	100 to 10000	
COc1ccc2nc(-c3cc(-c4ccc(C(=O)NC5CCN(C)CC5)s4)cnc3N)[nH]c2c1 [Compound A133, N-(1-Methylpiperidin-4-yl)-5-[6-amino-5-(6-methoxy-1H-benzimidazol-2-yl)pyridin-3-yl]thiophene-2-carboxamide]	1 to 100	
COc1ccc2nc(-c3cc(-c4ccsc4)cnc3N)[nH]c2c1 [Compound A144, 3-(6-methoxy-1H-benzimidazol-2-yl)-5-thiophen-3-ylpyridin-2-ylamine]	100 to 10000	

Continued, values first:

IC50 (IRAK-4 [1]) [nM]	IC50 (IRAK-4 [2]) [nM]	SMILES
> 10000		CC1CC(=O)NN=C1c1ccc2nc(-c3cc(-c4cnn(C)c4)cnc3N)[nH]c2c1 (racemic) [Compound A1, 6-{2-[2-amino-5-(1-methyl-1H-pyrazol-4-yl)pyridin-3-yl]-3H-benzimidazol-5-yl}-5-methyl-4,5-dihydro-2H-pyridazin-3-one]
100 to 10000		Cn1cc(-c2cnc(N)c(-c3nc4cccc(CO)c4[nH]3)c2)cn1 [Compound A52]
1 to 100	100 to 10000	COc1ccc2nc(-c3cc(-c4cnn(C5CCNCC5)c4)cnc3N)[nH]c2c1 [Compound A92, 3-(6-Methoxy-1H-benzimidazol-2-yl)-5-(1-piperidin-4-yl-1H-pyrazol-4-yl)pyridin-2-ylamine]
